Laboratory results from patent publication EP4617278A1, “NUCLEOTIDE ANALOG, AND COMPOSITION AND USE THEREOF” (priority 2022, dated 2024).

system: RSV A2 virus; assay: RSV CPE assay; details: human respiratory syncytial virus, HEp-2, 120 h, read-out: RSV A2 (Hep-2 cell) EC50

First: CC(C)C(=O)OCOP(=O)(OC[C@H]1O[C@@](C#N)(c2ccc3c(N)ncnn23)[C@H](OC(=O)C(C)C)[C@@H]1OC(=O)C(C)C)Oc1ccc(C(C)(C)C)cc1 (mixture of isomers) [Compound 26, (2R,3R,4R,5R)-2-(4-aminopyrrolo[2,1-f][1,2,4]triazin-7-yl)-5-((((4-tert-butylphenoxy)((isobutyryloxy)methoxy)phosphoryl)oxy)methyl)-2-cyanotetrahydrofuran-3,4-diyl bis(2-methylpropionate)]
Second: CC(C)C(=O)O[C@H]1[C@@H](OC(=O)C(C)C)[C@](C#N)(c2ccc3c(N)ncnn23)O[C@@H]1COP(=O)(OCCSC(=O)C(C)(C)C)Oc1ccc(C(C)(C)C)cc1 (mixture of isomers) [Compound 27, (2R,3R,4R,5R)-2-(4-aminopyrrolo[2,1-f][1,2,4]triazin-7-yl)-5-((((4-tert-butylphenoxy)(2-(pivaloylthio)ethoxy)phosphoryl)oxy)methyl)-2-cyanotetrahydrofuran-3,4-diyl bis(2-methylpropionate)]
The EC50 of the first is higher: greater than 1000 nM for the first, 200 to 500 nM for the second. The second is the more potent here.

First: CC(C)OC(=O)OCO[P@@](=O)(N[C@@H](C)C(=O)OC(C)C)OC[C@H]1O[C@@](C#N)(c2ccc3c(N)ncnn23)[C@H](OC(=O)C(C)C)[C@@H]1OC(=O)C(C)C [Compound 3a, (2R,3R,4R,5R)-2-(4-aminopyrrolo[2,1-f][1,2,4]triazin-7-yl)-2-cyano-5-((((R)-(((S)-1-isopropoxy-1-oxopropan-2-yl)amino)(((isopropoxycarbonyl)oxy)methoxy)phosphoryl)oxy)methyl)tetrahydrofuran-3,4-diyl bis(2-methylpropionate)]
Second: CC(C)OC(=O)OCO[P@](=O)(N[C@@H](C)C(=O)OC(C)C)OC[C@H]1O[C@@](C#N)(c2ccc3c(N)ncnn23)[C@H](OC(=O)C(C)C)[C@@H]1OC(=O)C(C)C [Compound 3b, (2R,3R,4R,5R)-2-(4-aminopyrrolo[2,1-f][1,2,4]triazin-7-yl)-2-cyano-5-((((S)-(((S)-1-isopropoxy-1-oxopropan-2-yl)amino)(((isopropoxycarbonyl)oxy)methoxy)phosphoryl)oxy)methyl)tetrahydrofuran-3,4-diyl bis(2-methylpropionate)]
The EC50 of the first is higher: 200 to 500 nM for the first, 100 to 200 nM for the second.

Compared with CCC(CC)COC(=O)[C@H](C)N[P@](=O)(OCOC(=O)OC(C)C)OC[C@H]1O[C@@](C#N)(c2ccc3c(N)ncnn23)[C@H](OC(=O)C(C)C)[C@@H]1OC(=O)C(C)C [Compound 7a, (2R,3R,4R,5R)-2-(4-aminopyrrolo[2,1-f][1,2,4]triazin-7-yl)-2-cyano-5-((((R)-(((S)-1-(2-ethylbutoxy)-1-oxopropan-2-yl)amino)(((isopropoxycarbonyl)oxy)methoxy)phosphoryl)oxy)methyl)tetrahydrofuran-3,4-diyl bis(2-methylpropionate)], CCC(CC)COC(=O)[C@H](C)N[P@@](=O)(OCOC(=O)OC(C)C)OC[C@H]1O[C@@](C#N)(c2ccc3c(N)ncnn23)[C@H](OC(=O)C(C)C)[C@@H]1OC(=O)C(C)C [Compound 7b, (2R,3R,4R,5R)-2-(4-aminopyrrolo[2,1-f][1,2,4]triazin-7-yl)-2-cyano-5-((((S)-(((S)-1-(2-ethylbutoxy)-1-oxopropan-2-yl)amino)(((isopropoxycarbonyl)oxy)methoxy)phosphoryl)oxy)methyl)tetrahydrofuran-3,4-diyl bis(2-methylpropionate)] is lower in EC50: 200 to 500 nM for the first, 100 to 200 nM for the second. The second is the more potent here.

With CCC(CC)COC(=O)[C@H](C)N[P@@](=O)(OCOC(=O)C(C)(C)C)OC[C@H]1O[C@@](C#N)(c2ccc3c(N)ncnn23)[C@H](OC(=O)C(C)C)[C@@H]1OC(=O)C(C)C [Compound 11b, (2R,3R,4R,5R)-2-(4-aminopyrrolo[2,1-f][1,2,4]triazin-7-yl)-2-cyano-5-((((S)-(((S)-1-(2-ethylbutoxy)-1-oxopropan-2-yl)amino)((pivaloyloxy)methoxy)phosphoryl)oxy)methyl)tetrahydrofuran-3,4-diyl bis(2-methylpropionate)] the EC50 was 200 to 500 nM.
